Our source for the ring closure, yield of all isomers and MIC values is US20260274892A1, “MACROCYCLIC BROAD SPECTRUM ANTIBIOTICS” (RQx Pharmaceuticals, Inc., priority 2017, published 2026).

Like-named read-outs stand apart in the source and are kept apart here.

For data set [1] the following is noted: cc_pd bond, Pd(dppf)Cl2·CH2Cl2, acetonitrile.
Data set [2] concerns Escherichia coli ATCC 25922. Description: Minimum inhibitory concentration (MIC), CLSI broth micro-dilution, E. coli. The conditions noted are these: Escherichia coli, ATCC25922, 22 h, Table 6, cation adjusted Mueller Hinton Broth + 0.002% Tween-80, 35° C. Type of data set: cell-based. The essentials:
(§1)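 Antibacterial potency is measured as MIC by the CLSI broth dilution method. Bacteria at OD600 0.0005 in Tween-80-supplemented cation-adjusted Mueller Hinton broth face ten twofold compound dilutions for 22 h at 35° C.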

Data set [3] concerns Methicillin Resistant Staphylococcus aureus strain USA 200. Description: Minimum inhibitory concentration (MIC), CLSI broth micro-dilution, S. aureus. Type of data set: cell-based. The conditions noted are these: Staphylococcus aureus, MRSA / USA200; Table 6; MRSA USA 200; cation adjusted Mueller Hinton Broth + 0.002% Tween-80; 35° C., 22 hours. The essentials:
as §1
(In broth dilution the organism is exposed to a series of concentrations in liquid medium.)

`COC(=O)[C@@H]1Cc2cc(F)c(OCc3ccccc3)c(c2)-c2cc(ccc2OCCNC(=O)OC(C)(C)C)[C@H](N(C)C(=O)OCc2ccccc2)C(=O)N[C@@H](C)C(=O)N1` displayed a ring closure, yield of all isomers in data set [1] (from COC(=O)[C@H](Cc1cc(F)c(OCc2ccccc2)c(B2OC(C)(C)C(C)(C)O2)c1)NC(=O)[C@H](C)NC(=O)[C@H](c1ccc(OCCNC(=O)OC(C)(C)C)c(I)c1)N(C)C(=O)OCc1ccccc1, 20.06 mM, 70.0 °C, 1.5 h) of 31%.

In data set [1] (from COC(=O)[C@H](Cc1cc(O)c(OC)c(B2OC(C)(C)C(C)(C)O2)c1)NC(=O)[C@H](C)NC(=O)[C@H](c1ccc(OC)c(I)c1)N(C)C(=O)OC(C)(C)C, 65.0 °C, 2.0 h), `COC(=O)[C@@H]1Cc2cc(O)c(OC)c(c2)-c2cc(ccc2OC)[C@H](N(C)C(=O)OC(C)(C)C)C(=O)N[C@@H](C)C(=O)N1` registered a ring closure, yield of all isomers of 17.1%.

On to `Cc1nc(-c2ccc(OC3CCCCC3)cc2)nc(C)c1C(=O)N[C@@H](CCCNS(N)(=O)=O)C(=O)N(C)[C@@H]1C(=O)N[C@@H](C)C(=O)N[C@H](C(=O)NCC#N)Cc2ccc(OCCN)c(c2)-c2cc1ccc2OCCN` [Compound 503, (8S,11S,14S)-3,18-bis(2-aminoethoxy)-N-(cyanomethyl)-14-[[(2S)-2-[[2-[4-(cyclohexoxy)phenyl]-4,6-dimethyl-pyrimidine-5-carbonyl]amino]-5-(sulfamoylamino)pentanoyl]-methyl-amino]-11-methyl-10,13-dioxo-9,12-diazatricyclo[13.3.1.12,6]icosa-1(18),2(20),3,5,15(19),16-hexaene-8-carboxamide], for which the MIC (usually the smallest concentration in the dilution series that meets the test's criterion for growth inhibition) amounted to 1 µM in data set [2] and 0.047 µM in data set [3].

`Cc1nc(-c2ccc(OC3CCCCC3)cc2)nc(C)c1C(=O)N[C@@H](CO)C(=O)N(C)[C@@H]1C(=O)N[C@@H](C)C(=O)N[C@H](C(=O)NCC#N)Cc2ccc(OCCN)c(c2)-c2cc1ccc2OCCN` [Compound 507, (8S,11S,14S)-3,18-bis(2-aminoethoxy)-N-(cyanomethyl)-14-[[(2S)-2-[[2-[4-(cyclohexoxy)phenyl]-4,6-dimethyl-pyrimidine-5-carbonyl]amino]-3-hydroxy-propanoyl]-methyl-amino]-11-methyl-10,13-dioxo-9,12-diazatricyclo[13.3.1.12,6]icosa-1(18),2(20),3,5,15(19),16-hexaene-8-carboxamide]: the MIC in data set [2] was 0.38 µM; in data set [3], 0.063 µM.

For the compound `Cc1nc(-c2ccc(OC3CCCCC3)cc2)nc(C)c1C(=O)N[C@H](CO)C(=O)N(C)[C@@H]1C(=O)N[C@@H](C)C(=O)N[C@H](C(=O)NCC#N)Cc2ccc(OCCN)c(c2)-c2cc1ccc2OCCN` [Compound 508, (8S,11S,14S)-3,18-bis(2-aminoethoxy)-N-(cyanomethyl)-14-[[(2R)-2-[[2-[4-(cyclohexoxy)phenyl]-4,6-dimethyl-pyrimidine-5-carbonyl]amino]-3-hydroxy-propanoyl]-methyl-amino]-11-methyl-10,13-dioxo-9,12-diazatricyclo[13.3.1.12,6]icosa-1(18),2(20),3,5,15(19),16-hexaene-8-carboxamide], the minimum inhibitory concentration (MIC) in data set [2] stood at 6 µM; in data set [3], 1 µM.

As to `Cc1nc(-c2ccc(OC3CCCCC3)cc2)nc(C)c1C(=O)N[C@@H](CCO)C(=O)N(C)[C@@H]1C(=O)N[C@@H](C)C(=O)N[C@H](C(=O)NCC#N)Cc2ccc(OCCN)c(c2)-c2cc1ccc2OCCN` [Compound 509, (8S,11S,14S)-3,18-bis(2-aminoethoxy)-N-(cyanomethyl)-14-[[(2S)-2-[[2-[4-(cyclohexoxy)phenyl]-4,6-dimethyl-pyrimidine-5-carbonyl]amino]-4-hydroxy-butanoyl]-methyl-amino]-11-methyl-10,13-dioxo-9,12-diazatricyclo[13.3.1.12,6]icosa-1(18),2(20),3,5,15(19),16-hexaene-8-carboxamide], the MIC was found to be 0.5 µM in data set [2] and 0.047 µM in data set [3].
